Measured values published in patent US7049293B2, “Peptide and osteogenetic accelerator” (Kyocera Corporation, priority 1998, dated 2006).
Residues, ends and D or L forms follow the SMILES beside them.

Assays:
rat bone marrow cells = assay: Cytotoxicity test in vitro, rat bone marrow cells (colony count, Giemsa staining); format: cell-based, rats (Lewis); conditions: 30 μg/ml, seven days
Source text: Femurs were aseptically taken out of six-week-old female rats (Lewis, purchased from Nippon SLC). Both ends of the femurs were cut off. Then bone marrow was extruded into centrifugal tubes by means of Eagle's MEM containing 10% of fetal bovine serum using an injection syringe with a 21 G injection needle. The bone marrow cells were sufficiently dispersed with a pipette and filtered through a 40 μm filter to remove agglutinations. The resulting bone marrow cells were centrifuged with Eagle's MEM containing 10% of fetal bovine serum three times (1200 rpm, 5 min.×3), and then the number of cells was counted. The bone marrow cells were diluted with Alpha MEM containing 10% of fetal bovine serum so that relatively large bone marrow cells were present in a concentration of 10^6/ml. The dilution was pipetted 10 ml in each culture flask having a culture area of 25 cm^2 and incubated at 37° C. in the presence of 5% CO2. […]
Twenty-four hours after the incubation was started, culture medium was removed and Alpha MEM containing 10% of fetal bovine serum and 30 μg/ml of the peptide described in Example 1 was added to the cells under culture. […] After seven days, the number of formed colonies of bone marrow cells was counted using Giemsa staining. […]

C3H10T1/2 cells = assay: Cytotoxicity test in vitro, C3H10T1/2 cells (protein concentration, BCA); format: cell-based; conditions: 100 μg/ml, six days
Description: C3H10T1/2 cells were dispersed in Eagle's MEM containing 10% fetal bovine serum, pipetted on a 96-well culture plate, 3750 cells per well, and incubated at 37° C. in the presence of 5% CO2. Into the wells, a PBS solution of the peptide described in Example 1 was added so that the resulting concentration became 100 μg/ml, followed by incubation under the same conditions for six days. Then the culture medium was removed and a cytolytic solution (0.1M Tris-HCl buffer containing 1% Triton X-100, pH 9) was added to dissolve cells. Then the concentration of protein was determined using BCA reagent (produced by Funakoshi Kabushiki Kaisha).

rats = assay: Acute toxicity test on rats; format: in vivo, rats (Lewis); conditions: 500 μg intraperitoneally three times in a week
Description: A PBS solution of 500 μg of the peptide described in Example 1 was intraperitoneally administered to six-week-old female rats (Lewis, purchased from Nippon SLC) three times in a week. […] Neither were the rats observed to have a poor coat of fur or any abnormal behavior during the test.

## CC[C@H](C)[C@H](NC(=O)[C@H](C)NC(=O)[C@H](CO)NC(=O)[C@H](CC(C)C)NC(=O)[C@H](CCC(=O)O)NC(=O)[C@@H](NC(=O)[C@@H]1CCCN1C(=O)[C@@H](NC(=O)[C@H](CS)NC(=O)[C@H](CS)NC(=O)[C@H](C)NC(=O)[C@H](CCCCN)NC(=O)[C@@H]1CCCN1C(=O)[C@@H](NC(=O)[C@H](CCCCN)NC(=O)[C@H](CO)NC(=O)[C@H](CC(N)=O)NC(=O)[C@@H](NC(=O)[C@H](CO)NC(=O)[C@@H](N)CC(N)=O)C(C)C)[C@@H](C)CC)C(C)C)[C@@H](C)O)C(=O)O [Example 1] (H-NSVNSKIPKACCVPTELSAI-OH)
Rat bone marrow cells; average per flask, PBS control 89
  number of formed colonies of bone marrow cells: 101
Rat bone marrow cells; rat bone marrow cells
  cytotoxicity (conclusion): did not have cytotoxicity
C3H10T1/2 cells; C3H10T1/2 cells
  cytotoxicity (conclusion): did not have cytotoxicity
C3H10T1/2 cells; n=12, PBS control 0.07±0.03
  concentration of protein: 120 ± 20 µg/mL
rats; after a week, n=6, PBS control 23±5
  increase in weight: 25 ± 6 g
rats; no poor coat of fur or abnormal behavior
  acute toxicity (conclusion): no significant acute toxicity
